Changes are numbered by the printed parent chain. Names and notes keep the numbering of the source. “Also recorded” adds a separate entry of the source. Where no end group is shown, it is not given here.

The subject of assay [1] is PAR. Description: PAR overlay assay of full length AIF and mutants. It counts as binding. Particulars: for reduced PAR binding: radioactive signal normalized to WT-AIF; for binding to 32P-labeled automodified PARP-1 or purified 32P-labeled PAR / effect of hundred fold excess of salmon sperm DNA on PAR binding: overlay assay; for binding to 32P-labeled automodified PARP-1 or purified 32P-labeled PAR: 100 nM PAR; for effect of hundred fold excess of salmon sperm DNA on PAR binding: 32P-labeled PAR; for effect of salmon sperm DNA on PAR binding: salmon sperm DNA at 760 μM. Here is the method: The following experiment was performed to confirm whether AIF in fact binds to PAR. Applicants performed 3 trials of an overlay assay on recombinant AIF with affinity-purified biotin-labeled PAR. Histone H3, which binds to PAR with high affinity, was included as a positive control and bovine serum albumin (“BSA”) was included as a negative control, as described by P. Chang et al. (Nat Cell Bio, 2005). FIG. 1B depicts three photos side by side for gels representative of all trials for these overlay assays. […] Thus, Applicants took the results of these two tests as confirming that AIF binds to PAR in vitro.
To further study these potential AIF PBMs, Applicants performed the following experiment to examine the effect of mutating AIFm amino acids 222-244, 441-463, and/or 567-592 to poly-alanine on the ability of AIF to bind PAR. FIG. 6 comprises black and white photographs of representative gels from an overlay assay of His-tagged WT-AIF, AIFm222-244, AIFm441-463, AIFm567-592, AIFΔ567-592 (i.e., a mutant lacking AAs 567-592), and AIF(K254A, R264A) (i.e., mutating K to A at 254 and R to A at 264) mutants with ^32P-labeled automodified PARP-1 (equivalent to 100 nM of PAR), purified ^32P-labeled PAR (100 nM), or purified ^32P-labeled PAR with either a 100-fold excess of DNA or cold PAR. […] The same can be assumed to corresponding sequences for other species, such as those identified in FIG. 4.
Additionally, to exclude the possibility that PAR polymer is binding to AIF through its DNA-binding domain, PAR polymer binding was assessed against the full length AIF DNA-binding mutant AIFK254A;R264A as described by H Cande et al. (Nat Struct Biol, 2002).
Finally, Human AIF (“AIFH”) is known to bind to DNA through a groove between the FAD-binding domain (“D1”) and C-terminal domain (“D3”). A mutant form of AIFH in which lysine 255 is substituted with alanine and arginine 265 is substituted with alanine (AIFK255A;R265A) completely lacks DNA binding. To investigate the possible contribution of the AIF DNA-binding domain to PAR binding, Applicants assessed PAR binding to AIFm mutated in the same way (AIFK254A;R264A). […] Thus, Applicants concluded that the AIF PAR-binding site is separable from its DNA-binding site, meaning that such binding could be inhibited by genetically modifying AIF without impacting the natural DNA binding capabilities of AIF or potentially by otherwise inhibiting the binding action of the PBMs.

The test system of assay [2] is isolated mitochondria. Description: AIF binding to isolated mitochondria. Here is the method:
One commonly accepted estimate is that approximately 20%-30% of AIF resides on the cytosolic side of the outer membrane of mitochondria, where it is poised to be rapidly released by PAR following PARP-1 activation. Applicants thus wanted to perform tests of AIF binding to mitochondria determine how readily purified WT-AIF and Pbm-AIF bind to mitochondria in a time- and concentration-dependent manner. Specifically, recombinant WT-AIF (2.5 ng/μl) and Pbm-AIF (2.5 ng/μl) were incubated with isolated mitochondria (200 μg/ml) for 1 minute, 5 minutes, 10 minutes, 15 minutes, 20 minutes or 30 minutes. […] The results of this portion of the experiment is provided by the graph of FIG. 15B.
To investigate the mechanism underlying mitochondrial AIF release following PARP-1 activation, Applicants incubated isolated mitochondria with purified non-tagged forms of AIF in the presence or absence of PAR and followed this by centrifugation to remove the mitochondria. Detection of AIF remaining in the supernatant was thereafter performed through immunoblot analysis.
The supernatant collected in the experiments of Example 16 were also analyzed for the presence of Tom20 and cyclochrome c.

The test system of assay [3] is PAR. Description: nitrocellulose saturation binding experiments. Particulars: PAR binding, saturation binding. From the text:
Applicants thereafter repeated the experiments using both wild type and mutant AIFm peptides spanning only amino acids 567-592 instead of full length AIFm and obtained results consistent with those using full-length AIF. […] The double amino acid mutant Dm (corresponding to only amino acids 567-592 of AIF-Dm so as to consist of SEQ. ID NO. 16) bound PAR. […] Thus, it is preferred in embodiments of the invention when conducting genetic manipulations to convert at least three target basic amino acids in the PBM to hydrophobic amino acids.
The PAR polymer binding properties of the mutant Pbm-AIF was then measured using full-length recombinant His-WT-AIF and His tagged Pbm-AIF (“His-Pbm-AIF”) via a series of nitrocellulose saturation binding experiments. Similar experiments were also conducted for the shorter peptides Dm and Tm in comparison to WT. FIG. 10B through FIG. 10D comprise charts reporting data from these various experiments. With regard to the shorter peptides, Applicants determined that the binding affinity constant (“Kd”) and maximum binding capacity (“Bmax”) of these AIF mimetic peptides and the results are reported in the chart of FIG. 10B. […] FIG. 10D comprises a Scatchard plot (95% confidence interval) of the results.

“AIFK589L;K592L: His-tagged mouse AIF double leucine mutant, SEQ. ID NO. 21 (LRDKVVVGIVLWNVFNRMPIARLIIL; also: His tag)”: the “reduced PAR binding” value in assay [1] is “about 85%”.

As for “AIFR588L;K589L: His-tagged mouse AIF double leucine mutant, SEQ. ID NO. 19 (LRDKVVVGIVLWNVFNRMPIALLIIK; also: His tag)”, the “reduced PAR binding” value in assay [1] is recorded as “about 85%”.

For “AIFR588L;K592L: His-tagged mouse AIF double leucine mutant, SEQ. ID NO. 20 (LRDKVVVGIVLWNVFNRMPIALKIIL; also: His tag)”, the “reduced PAR binding” value in assay [1] is listed as “about 85%”.

On to “Poly(ADP-ribose) [PAR, reference compound]”, for which the “release of endogenous cytochrome c from mitochondria” value is reported as “failed to induce the release of endogenous cytochrome c” in assay [2] (5 nM and 50 nM PAR); “a weak cytochrome c signal could be detected” in assay [2] (100 nM PAR). Further, the “Tom20 in the supernatant (mitochondrial integrity)” value in assay [2] (any concentration of PAR used) is on record as “could not be detected in the supernatant”.

For “peptide of amino acids 567-592 of mouse AIF, SEQ. ID NO. 10 LRDKVVVGIVLWNVFNRMPIARKIIK (mouse) [WT peptide]”, the figures for the Bmax in assay [3] and in assay [3] (listed as AIFm567-592 peptide) were 4.57 pmol and 4.55 pmol, respectively.

Regarding “triple leucine mutant: mouse AIF mutant R588L;K589L;K592L (LRDKVVVGIVLWNVFNRMPIALLIIL; mouse)”, the PAR binding result in assay [1] (His-tagged proteins, purified PAR, normalized to WT-AIF, result in words) was “nearly abolished PAR-binding”.

B1: AIF-Sm: full length mouse AIF, arginine at 588 substituted with alanine (protein, UniProt Q9Z0X1 1-612, looked up, variant R588A)
chain: MFRCGGLAGAFKQKLVPLVRTVYVQRPKQRNRLPGNLFQQWRVPLELQMARQMASSGSSGGKMDNSVLVLIVGLSTIGAGAYAYKTIKEDQKRYNERVMGLGLSPEEKQRRAIASATEGGSVPQIRAPSHVPFLLIGGGTAAFAAARSIRARDPGARVLIVSEDPELPYMRPPLSKELWFSDDPNVTKTLQFRQWNGKERSIYFQPPSFYVSAQDLPNIENGGVAVLTGKKVVHLDVRGNMVKLNDGSQITFEKCLIATGGTPRSLSAIDRAGAEVKSRTTLFRKIGDFRALEKISREVKSITVIGGGFLGSELACALGRKSQASGIEVIQLFPEKGNMGKILPQYLSNWTMEKVKREGVKVMPNAIVQSVGVSGGRLLIKLKDGRKVETDHIVTAVGLEPNVELAKTGGLEIDSDFGGFRVNAELQARSNIWVAGDAACFYDIKLGRRRVEHHDHAVVSGRLAGENMTGAAKPYWHQSMFWSDLGPDVGYEAIGLVDSSLPTVGVFAKATAQDNPKSATEQSGTGIRSESETESEASEITIPPSAPAVPQVPVEGEDYGKGVIFYLRDKVVVGIVLWNVFNRMPIAAKIIKDGEQHEDLNEVAKLFNIHED
modifications: full-length
notes: full length mouse AIF, arginine at 588 substituted with alanine
With B1, in assay [1], the “reduced PAR binding” value is 40%.

B2: AIF-Qm: full length mouse AIF, arginine 588, lysine 589, lysine 592 and arginine 583 substituted with alanines (protein, UniProt Q9Z0X1 1-612, looked up, variant R583A R588A K589A K592A)
chain: B1 chain with R583A, K589A, K592A
modifications: full-length
notes: full length mouse AIF, arginine 588, lysine 589, lysine 592 and arginine 583 substituted with alanines
In the case of B2, in assay [1], the “reduced PAR binding” value came to 90%.

B3: AIFK254A;R264A: full length mouse AIF DNA-binding mutant, K to A at 254 and R to A at 264 (protein)
chain: B1 chain with K254A, R264A, A588R
modifications: left off: small tags and cut ends
Regarding B3, the “binding to 32P-labeled automodified PARP-1 or purified 32P-labeled PAR” value in assay [1] (His-tagged proteins) is “still substantially binds; also recorded: bound to ^32P-labeled automodified PARP-1 and purified ^32P-labeled PAR”. In addition, in assay [1], the “effect of hundred fold excess of salmon sperm DNA on PAR binding” value is “fails to disrupt” and the “effect of salmon sperm DNA on PAR binding” value is listed as “failed to disrupt PAR binding”.

B4: AIF-Dm: full length mouse AIF, arginine 588 and lysine 589 substituted with alanines (protein, UniProt Q9Z0X1 1-612, looked up, variant R588A K589A)
chain: B1 chain with K589A
modifications: full-length
notes: full length mouse AIF, arginine 588 and lysine 589 substituted with alanines
Take B4: the “reduced PAR binding” value in assay [1] is listed as 80%.

B5: AIFm441-463: His-tagged mouse AIF with amino acids 441 to 463 mutated to poly-alanine (protein)
chain: MFRCGGLAGAFKQKLVPLVRTVYVQRPKQRNRLPGNLFQQWRVPLELQMARQMASSGSSGGKMDNSVLVLIVGLSTIGAGAYAYKTIKEDQKRYNERVMGLGLSPEEKQRRAIASATEGGSVPQIRAPSHVPFLLIGGGTAAFAAARSIRARDPGARVLIVSEDPELPYMRPPLSKELWFSDDPNVTKTLQFRQWNGKERSIYFQPPSFYVSAQDLPNIENGGVAVLTGKKVVHLDVRGNMVKLNDGSQITFEKCLIATGGTPRSLSAIDRAGAEVKSRTTLFRKIGDFRALEKISREVKSITVIGGGFLGSELACALGRKSQASGIEVIQLFPEKGNMGKILPQYLSNWTMEKVKREGVKVMPNAIVQSVGVSGGRLLIKLKDGRKVETDHIVTAVGLEPNVELAKTGGLEIDSDFGGFRVNAELQARSNIWVAGDAACAAAAAAAAAAAAAAAAAAAAAAAAGENMTGAAKPYWHQSMFWSDLGPDVGYEAIGLVDSSLPTVGVFAKATAQDNPKSATEQSGTGIRSESETESEASEITIPPSAPAVPQVPVEGEDYGKGVIFYLRDKVVVGIVLWNVFNRMPIARKIIKDGEQHEDLNEVAKLFNIHED
modifications: left off: small tags and cut ends
notes: His-tagged mouse AIF with amino acids 441 to 463 mutated to poly-alanine
As to B5, in assay [1] (His-tagged proteins), the “binding to 32P-labeled automodified PARP-1 or purified 32P-labeled PAR” value is reported as “comparable binding to that of unmutated WT-AIFm”. In assay [1], the “effect of hundred fold excess of salmon sperm DNA on PAR binding” value is given as “fails to disrupt” and the “effect of salmon sperm DNA on PAR binding” value is “failed to disrupt PAR binding”.

Source of the values: patent US20120122765A1, “COMPOUNDS AND RELATED METHODS FOR MANIPULATING PARP-1-DEPENDENT CELL DEATH” (priority 2010, published 2012).
